As a reminder, the CC50 is the concentration giving 50% cytotoxicity. Broadly, the IC50 is the concentration that gives 50% inhibition. As usually defined, the MIC is the lowest concentration that inhibits growth of the organism. A lower MIC goes with a more susceptible organism.

Data set [1] concerns HaCaT human keratinocytes. The experiment in a line: Cell toxicity assay (MTS). Particulars: for CC50: MTS assay, concentration which killed 50% of the cells. The class given is cell-based. On the procedure: The HaCaT cell line was grown in Epilife medium (MEPI500Ca) with human keratinocyte growth supplement (Invitrogen, San Diego, CA). Both types of cells were harvested using Tryspin/EDTA and diluted to 1×10^5 cells per well in a 96-well plate. Ten concentrations covering five orders of magnitude were tested with six replicates per concentration. […] MTS/PMS solution (Promega, Madison, WI) was added to the wells and absorbance was measured at 490 nm two to four hours later. Data was analyzed using GraphPad Prism version 5.0 (GraphPad Software, La Jolla, CA) using a variable slope inhibition dose response curve.
On the technique in general: Tetrazolium assays rely on reduction of a dye to a coloured formazan, in cell work by metabolically active cells.

Data set [2] has as its system P. aeruginosa PA01. The experiment in a line: Bacterial viability assay. The class given is cell-based, Pseudomonas aeruginosa. The conditions noted are these: one hour in PBS, CFU, ± SEM. As for the experimental part: (§1) Supplementary file pone.0097742.s003.doc: Table S1 Bacterial viability assays. Bacteria were grown at 37°C to mid-log phase (OD600 ∼0.4). The bacteria were diluted to approximately 10^4 to 10^5 colony forming units (CFU) per milliliter and added to a solution of phosphate buffered saline (PBS, 16 mM phosphate, 0.14 M NaCl, pH 7.2) containing the compound at varied concentrations. Samples were incubated at 37°C for one hour and then plated on Luria Bertani (LB) agar at appropriate dilutions in PBS. The plates were incubated overnight at 37°C and colonies enumerated the following day. IC50s were calculated from graphs of CFU as a function of compound concentration. Chlorhexidine was used as a positive control. […] (DOC) Click here for additional data file.
(§2) Bacterial viability assays. Bacteria were grown at 37°C to mid-log phase (OD600 ~0.4). The bacteria were diluted to approximately 10^4 to 10^5 colony forming units (CFU) per milliliter and added to a solution of phosphate buffered saline (PBS, 16 mM phosphate, 0.14 M NaCl, pH 7.2) containing the compound at varied concentrations. Samples were incubated at 37°C for one hour and then plated on Luria Bertani (LB) agar at appropriate dilutions in PBS. The plates were incubated overnight at 37°C and colonies enumerated the following day. IC50s were calculated from graphs of CFU as a function of compound concentration. Chlorhexidine was used as a positive control.

The subject of data set [3] is S. aureus RN4220. The data set can be described thus: Bacterial viability assay. It is filed as cell-based, Staphylococcus aureus. The conditions noted are these: one hour in PBS, CFU, ± SEM. On the procedure:
(§3) Supplementary file pone.0097742.s003.doc: Table S1 Bacterial viability assays. Bacteria were grown at 37°C to mid-log phase (OD600 ∼0.4). The bacteria were diluted to approximately 10^4 to 10^5 colony forming units (CFU) per milliliter and added to a solution of phosphate buffered saline (PBS, 16 mM phosphate, 0.14 M NaCl, pH 7.2) containing the compound at varied concentrations. Samples were incubated at 37°C for one hour and then plated on Luria Bertani (LB) agar at appropriate dilutions in PBS. The plates were incubated overnight at 37°C and colonies enumerated the following day. IC50s were calculated from graphs of CFU as a function of compound concentration. Chlorhexidine was used as a positive control. Included are those guanide (G), biguanide (BG), phenylguanide (ΦG) compounds that had some antibacterial activity in an initial screen at 30 and 100 µM, as well as their and parent amines. Compounds synthesized from 1,4-butanediamine, 1,6-hexanediamine, trisethylaminomelamine, trisbutylaminomelamine, and the dendrimer PAMAM (G0) were not active against E. coli, P aeruginosa, or S. aureus so they were not tested against the remaining bacteria (data not shown). (DOC) Click here for additional data file.
as §3, with “Bacterial” for “Supplementary file pone.0097742.s003.doc: Table S1 Bacterial”, “~0.4).” for “∼0.4).”, “μM,” for “µM,”, “shown).” for “shown). (DOC) Click here for additional data file.”

The subject of data set [4] is MRSA USA300. The experiment in a line: Bacterial viability assay. The class given is cell-based, Staphylococcus aureus. The conditions noted are these: one hour in PBS, CFU, ± SEM. On the procedure: as §1, §2
The subject of data set [5] is E. coli K91. The data set can be described thus: Bacterial viability assay. It is filed as cell-based, Escherichia coli. Particulars: one hour in PBS, CFU, ± SEM. As for the experimental part:
as §1, §2

For data set [6], the system named is Enterococcus faecalis MSU#10. The experiment in a line: Minimum inhibitory concentration (microdilution). The class given is cell-based. Particulars: E. faecalis MSU#10; LB media; median of at least 3 determinations. On the procedure: (§4) Minimum inhibitory concentration (MIC) values were determined for those compounds showing the most antibacterial activity in the bacterial viability assays (see Supplemental Materials) against each of the strains of bacteria using a microdilution method in 96 well plates with LB media according to guidelines published by the British Society for Antimicrobial Chemotherapy. Minimum bactericidal concentrations (MBC) were determined by plating 10 µL and 100 µL from each well showing no signs of growth after overnight incubation of the MIC plates and determining the minimum concentration showing a 3-log reduction of viable bacteria. MIC and MBC were also determined in cation-adjusted Mueller-Hinton broth (Hardy Diagnostics, Santa Maria, CA) for some compounds and strains.
Background: In broth dilution the organism is exposed to a series of concentrations in liquid medium.

The subject of data set [7] is Escherichia coli (strain K91). The experiment in a line: Minimum inhibitory concentration (microdilution). It is filed as cell-based. The conditions noted are these: E. coli K91; LB media; median of at least 3 determinations. As for the experimental part:
as §4

Data set [8] relates to Pseudomonas aeruginosa (strain PA01). The experiment in a line: Minimum inhibitory concentration (microdilution). The conditions noted are these: P. aeruginosa PA01; LB media; median of at least 3 determinations. The class given is cell-based. On the procedure:
as §4

In data set [9] the test system is Acinetobacter baumannii ATCC 19606. The data set can be described thus: Minimum inhibitory concentration (microdilution). The class given is cell-based. Particulars: A. baumannii ATCC 19606; LB media; median of at least 3 determinations. On the procedure: as §4
Data set [10] concerns Enterococcus faecalis ATCC V583. The data set can be described thus: Minimum inhibitory concentration (microdilution). It is filed as cell-based. The conditions noted are these: E. faecalis V583; LB media; median of at least 3 determinations. On the procedure: as §4
Data set [11] has as its system Staphylococcus aureus RN4220. The data set can be described thus: Minimum inhibitory concentration (microdilution). The class given is cell-based. Particulars: S. aureus RN4220; LB media; median of at least 3 determinations. On the procedure: as §4
For data set [12], the system named is MRSA strain LAC, USA300. The experiment in a line: Minimum inhibitory concentration (microdilution). The class given is cell-based, Staphylococcus aureus. The conditions noted are these: MRSA USA300; LB media; median of at least 3 determinations. On the procedure: as §4
For data set [13], the system named is E. faecalis V583. The experiment in a line: Bacterial viability assay. It is filed as cell-based, Enterococcus faecalis. Particulars: one hour in PBS, CFU, ± SEM. On the procedure: as §1, §2
In data set [14] the test system is E. faecalis MSU#10. The data set can be described thus: Bacterial viability assay. It is filed as cell-based, Enterococcus faecalis. Particulars: E. faecalis MSU#10; one hour in PBS, CFU; ± SEM; read-out: IC50. As for the experimental part:
as §1, §2

Data set [15] has as its system A. baumannii ATCC BAA1605. The data set can be described thus: Bacterial viability assay. It is filed as cell-based, Acinetobacter baumannii. The conditions noted are these: one hour in PBS, CFU, ± SEM. As for the experimental part: as §1, §2
Data set [16] relates to A. baumannii ATCC 19606. The experiment in a line: Bacterial viability assay. Particulars: one hour in PBS, CFU, ± SEM. It is filed as cell-based, Acinetobacter baumannii. As for the experimental part: as §1, §2

Values after ≈ are worked out from the molar mass of the structure shown.

On to `N=C(N)NCCCCCCCCNc1nc(NCCCCCCCCNC(=N)N)nc(NCCCCCCCCNC(=N)N)n1` [TOAM-3G], for which the “Relative to chlorhexidine (factor by which cytotoxicity was reduced)” value in data set [1] stood at 1.9. The same molecule yielded a CC50 in [1] of 3.6 µg/mL (≈ 5.68 µM). In addition, the IC50 in data set [2] was 850 ± 190 nM; in [3], 4700 ± 100 nM; in data set [4] it was 1500 ± 600 nM; in [5], 680 ± 40 nM; in [13], 23000 ± 14000 nM; in data set [14] it was 5000 ± 1900 nM. For the same molecule, the figures for the IC50 in data set [15] and in [16] were 920 ± 100 nM and 2600 ± 1100 nM, respectively. Besides, the MIC in data set [6] is 16 µg/mL (≈ 25.2 µM); in data set [7], 8 µg/mL (≈ 12.6 µM); in data set [8] it was 16 µg/mL (≈ 25.2 µM); in data set [9] it was above 64 µg/mL; in [10], above 64 µg/mL; in data set [11], 2 µg/mL (≈ 3.15 µM). The MIC in [12] turned out to be 1 µg/mL (≈ 1.58 µM).
With `N=C(NCCCCCCCCNc1nc(NCCCCCCCCNC(=N)Nc2ccccc2)nc(NCCCCCCCCNC(=N)Nc2ccccc2)n1)Nc1ccccc1` [TOAM-3ΦG], the “Relative to chlorhexidine (factor by which cytotoxicity was reduced)” value in [1] came out at 1.3. Further, the CC50 in data set [1] was determined as 2.4 µg/mL (≈ 2.78 µM). The IC50 in data set [2] worked out at 1000 ± 300 nM; in [3], 540 ± 90 nM; in data set [4], 240 ± 30 nM; in data set [5], 330 ± 110 nM; in [13], 1700 ± 400 nM; in data set [14], 1200 ± 100 nM. Besides, the results for the IC50 in [15] and in data set [16] were 1700 nM and 450 ± 230 nM, respectively. Moreover, the MIC in data set [6] was 2 µg/mL (≈ 2.32 µM); in [7], 2 µg/mL (≈ 2.32 µM); in data set [8], above 64 µg/mL; in data set [9], above 64 µg/mL; in data set [10], 4 µg/mL (≈ 4.64 µM); in data set [11], 2 µg/mL (≈ 2.32 µM). The molecule also yielded an MIC in [12] of 2 µg/mL (≈ 2.32 µM).
For `NCCCCCCCCNc1nc(NCCCCCCCCN)nc(NCCCCCCCCN)n1` [TOAM], the “Relative to chlorhexidine (factor by which cytotoxicity was reduced)” value in data set [1] came out at 2.1. The molecule further came in with a CC50 in data set [1] of 4.1 µg/mL (≈ 8.07 µM). The IC50 in data set [2] was above 100000 nM; in data set [3], above 100000 nM; in data set [4] it was 30000 nM; in [5] it was 3900 ± 300 nM; in data set [13] it was above 100000 nM; in data set [14] it was 77000 ± 30000 nM. The IC50 in data set [15] worked out at 1300 ± 600 nM; in data set [16] it was 3900 ± 2000 nM. Moreover, the MIC in [6] is above 64 µg/mL; in data set [7] it was above 64 µg/mL; in data set [8], 64 µg/mL (≈ 126 µM); in [9], above 64 µg/mL; in data set [10], above 64 µg/mL; in data set [11], above 64 µg/mL. In [12], this molecule displayed an MIC of 48 µg/mL (≈ 94.5 µM).

The record behind these values is publication PMC4026384, “Antibacterial Activity of THAM Trisphenylguanide against Methicillin-Resistant Staphylococcus aureus” (PLoS ONE, 2014).
